Assays:
[1] = Patch test (elicitation) in a human subject sensitized to propranolol
Procedure: A human subject suspected of being sensitized to propranolol was patch tested for 16 hours with 0.5% propranolol in a 2% hydroxyethyl cellulose (HEC) gel buffered to a pH of 8.5 with 0.05M TrisHC1.
The same subject was patch tested several days later with the following compositions in 2% HEC gel buffered to a pH of 8.5 with 0.05M TrisHC1: 0.5% propranolol; 0.5% tranylcypromine; 10% 2-phenyl-1-ethanol; 0.5% propranolol with 0.5% tranylcypromine; and 0.5% propranolol with 10% 2-phenyl-1-ethanol. Each composition was placed simultaneously at different sites on the subject's volar forearm.

[2] = test system: propranolol metabolism in human keratinocytes; details: tritiated propranolol 1.5×10^-7 M, several days, metabolites by TLC, vs control incubation without tranylcypromine
Procedure: At the end of several days, the metabolites resulting from propranolol ,metabolism were identified and quantitated by thin layer chromatography.
Human keratinocytes were incubated in tritiated propranolol (12.5 Ci/mmole, final concentration 1.5×10^-7 M) and a range of concentration of each phenyl alcohol. Quadruplicates were used at each concentration. At six days, the metabolites resulting from propranolol deamination were extracted (ether, pH of 3) and the radioactivity of the extract was measured by scintillation counting. The concentration of each phenyl alcohol studied, which inhibits 50 percent of propranolol metabolism (MI50) was estimated by means of the Litchfield and Wilcoxon method.

[3] = test system: monoamine oxidase-dependent tetracaine metabolism; assay: In vitro metabolism of tetracaine (methods of the propranolol studies)
[4] = Patch test (elicitation) in human subjects sensitized to tetracaine, erythema by Minolta Chromameter; type: in vivo; details: 21 hours after removal
Procedure: Testing occurred over a period of several weeks where a positive control composition was placed on the skin along with one of the tetracaine/phenyl alcohol compositions and the intensity of the skin reaction obtained, was observed. This was repeated on different areas of the arm until all of the compositions were tested. Each formulation remained on the skin for a period of three hours and the reactions were observed during the 16-24 hour period after removal of the formulation. Erythema or redness of the reaction site was quantitated with a Minolta Chromameter. In all instances, the intensity of the reaction caused by the tetracaine/phenyl alcohol composition, was less than that caused by tetracaine alone (positive control). Thus it was established that the presence of phenyl alcohols reduced the elicitation reaction as compared to the 2% tetracaine gel.
The best results were obtained using 2-phenyl-1-ethanol and 3-phenyl-1-propanol. On a scale of 0-100, with 0 being 0% inhibition (2% tetracaine gel/positive control) and 100 being 100% inhibition (placebo gel/negative control), the following data was obtained 21 hours after removal of the formulations: […]

[5] = Induction of contact sensitization by patches in groups of 100 human subjects; type: in vivo; details: tetracaine/2-phenyl-1-ethanol patches vs tetracaine-only patches, 100 subjects each
Procedure: The components were blended in an internal mixing bowl at 100° C. and after approximately one hour, the mixture was extruded between two release substrates. One substrate was peeled away and a backing member was applied in its place.
Similar patches were manufactured without the presence of 2-phenyl-1-ethanol.
Two groups of 100 human subjects each were then tested. They were each tested by application of a system, for a three hour duration, once every 8 weeks.
100 subjects were given the patches containing only tetracaine. […] The other 100 subjects were given the patches containing both tetracaine and 2-phenyl-1-ethanol.

[6] = test system: monoamine oxidase activity; type: cell-based
From the text: Therefore, the metabolism of chlorpheniramine can also be inhibited in the skin or mucosa, by the addition of metabolic modulators such as the phenyl alcohols disclosed with reference to propranolol.

[7] = 0.5% alone in 2% HEC gel pH 8.5, volar forearm, one day later, propranolol-sensitized subject
[8] = 2.5 weight % inhibitor with 2% tetracaine gel
[9] = 5 weight % inhibitor with 2% tetracaine gel
[10] = 10 weight % inhibitor with 2% tetracaine gel

N[C@@H]1C[C@H]1c1ccccc1 (relative stereo) [tranylcypromine]
skin reaction at patch site [1, 7]: No reaction | inhibition of propranolol metabolism [2]: inhibited | inhibition of monoamine oxidase-dependent tetracaine metabolism [3]: could be inhibited

OCCc1ccccc1 [2-phenyl-1-ethanol]
skin reaction at patch site ([1]; human, in vivo, pH 8.5): No reaction | Percent Inhibition of Reaction [4, 8]: 52% | Percent Inhibition of Reaction [4, 9]: 52% | Percent Inhibition of Reaction [4, 10]: 77% | reduction of the incidence of sensitization [5]: about 70% | inhibition of monoamine oxidase-dependent tetracaine metabolism [3]: could be inhibited

OCCCc1ccccc1 [3-Phenyl-1-propanol, 3-phenyl-1-propanol]
Percent Inhibition of Reaction [4, 8]: 37% | Percent Inhibition of Reaction [4, 9]: 100% | Percent Inhibition of Reaction [4, 10]: 100%

CN(C)CCC(c1ccc(Cl)cc1)c1ccccn1 (stereo not shown) [chlorpheniramine]
dependence of in vitro skin metabolism on monoamine oxidase activity [6]: largely dependent upon monoamine oxidase activity

CC(C)NCC(O)COc1cccc2ccccc12 (stereo not shown) [propranolol]
skin reaction at patch site [1, 7]: strong reaction | skin reaction after patch test ([1]; 0.5% in 2% HEC gel pH 8.5, 16 hours patch, one to two days later): a reaction which was characteristic of a contact sensitization reaction

CCCCNc1ccc(C(=O)OCCN(C)C)cc1 [tetracaine]
portion of metabolism that is monoamine oxidase-dependent [3]: 25%
